Measurements as given in article PMC4104309, “Estradiol Binds to Insulin and Insulin Receptor Decreasing Insulin Binding in vitro” (Frontiers in Endocrinology, 2014).
pKd: −log10 of the molar value. Values joined by “and” are separate entries in the source; they are usually repeats but may differ in a detail not shown here. Equal entries are not always repeated. Structures can show the parent of a compound that is named as a salt. Where two headings read alike, the source gives them in different places.

Assays:
[1] = molecular target: IR α 284–300 peptide of the human insulin receptor (Homo sapiens, UniProt P06213); assay: UV spectroscopy binding to insulin receptor peptide IR α 284–300
[2] = molecular target: IR α 91–103 peptide of the human insulin receptor (Homo sapiens, UniProt P06213); assay: UV spectroscopy binding to insulin receptor peptide IR α 91–103
[3] = molecular target: T1, IR α 424–441 peptide of the human insulin receptor (Homo sapiens, UniProt P06213); assay: UV spectroscopy binding to insulin receptor peptide IR α 424–441; details: for Kd: UV spectroscopy, peptide 100 nM in pH 7.4 phosphate buffer, 30 min room temperature, duplicates averaged
T1 construct: IR α 424–441; made in house; host or cells: chemical peptide synthesis (Michigan State University facility)
Text: Humulin R was obtained from Lilly.

[4] = molecular target: recombinant human insulin (Humulin) (Homo sapiens, UniProt P01308); assay: UV spectroscopy binding of sex hormones to recombinant human insulin (Humulin); details: for Binding to INS (in words): UV spectroscopic studies, discussion summary
Chain of recombinant human insulin (Humulin) (P01308 with tags, fused parts or gaps): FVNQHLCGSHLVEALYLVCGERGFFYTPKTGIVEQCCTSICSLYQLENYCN
Chain of recombinant human insulin (Humulin) (P01308 with tags, fused parts or gaps): as above

[5] = molecular target: IR α 233–248 peptide of the human insulin receptor (Homo sapiens, UniProt P06213); assay: UV spectroscopy binding to insulin receptor peptide IR α 233–248
[6] = molecular target: IR α 392–404 peptide of the human insulin receptor (Homo sapiens, UniProt P06213); assay: UV spectroscopy binding to insulin receptor peptide IR α 392–404
[7] = molecular target: IR β 897–916 peptide of the human insulin receptor (Homo sapiens, UniProt P06213); assay: UV spectroscopy binding to insulin receptor peptide IR β 897–916
Chain of IR β 897–916 peptide of the human insulin receptor (P06213 897-916 limits assumed): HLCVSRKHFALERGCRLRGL

[8] = molecular target: IR α 105–118 peptide of the human insulin receptor (Homo sapiens, UniProt P06213); assay: UV spectroscopy binding to insulin receptor peptide IR α 105–118
[9] = molecular target: IR α 223–234 peptide of the human insulin receptor (Homo sapiens, UniProt P06213); assay: UV spectroscopy binding to insulin receptor peptide IR α 223–234
[10] = molecular target: IR α 453–464 peptide of the human insulin receptor (Homo sapiens, UniProt P06213); assay: UV spectroscopy binding to insulin receptor peptide IR α 453–464
[11] = molecular target: oxidized insulin B chain (Insulin beta chain) (Bos taurus, UniProt P01317); assay: UV spectroscopy binding to oxidized insulin B chain; details: read-out: Binding constant to individual oxidized INS B chain
Chain of oxidized insulin B chain (Insulin beta chain) (P01317 25-54): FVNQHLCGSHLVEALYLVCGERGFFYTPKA
Text: (§1) Additions were made serially.

[12] = test system: INS binding; details: 1 mg dose of E2, within 24 h; ref Hilf et al. ([80]); cited from earlier work
[13] = Concentration of E2 in E2-saturated buffer with INS–HRP or IR, by capillary electrophoresis; format: physicochemical; details: crystals in buffer, at least 48 h room temperature; CE read-out
[14] = test system: INS binding; details: 10^−8 M 17β-estradiol in the culture medium; ref Hilf et al. ([80]); cited from earlier work
[15] = test system: insulin receptor (IR) isolated from rat liver; assay: Enzyme-linked INS binding assay: effect of E2 on INS–HRP binding to IR
[16] = test system: Human recombinant INS; assay: Capillary electrophoresis: E2 in solution with and without insulin; details: mean ± SD of the five EI/E ratios (10, 15, 20, 25, 30 kV)
[17] = molecular target: oxidized insulin A chain (Insulin alpha chain) (Bos taurus, UniProt P01317); assay: UV spectroscopy binding to oxidized insulin A chain
Chain of oxidized insulin A chain (Insulin alpha chain) (P01317 85-105): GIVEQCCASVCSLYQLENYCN

[18] = molecular target: Glucagon (Homo sapiens, UniProt P01275); assay: UV spectroscopy binding to glucagon (control)
Chain of Glucagon (P01275 53-81): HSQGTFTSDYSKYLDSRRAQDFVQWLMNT

[19] = molecular target: human INS-like growth factor receptor (IGFR) (Homo sapiens, UniProt P08069); assay: UV spectroscopy (serial addition) binding of estradiol to IGFR; details: human recombinant IGFR, biphasic
Chain of human INS-like growth factor receptor (IGFR) (P08069 with tags, fused parts or gaps): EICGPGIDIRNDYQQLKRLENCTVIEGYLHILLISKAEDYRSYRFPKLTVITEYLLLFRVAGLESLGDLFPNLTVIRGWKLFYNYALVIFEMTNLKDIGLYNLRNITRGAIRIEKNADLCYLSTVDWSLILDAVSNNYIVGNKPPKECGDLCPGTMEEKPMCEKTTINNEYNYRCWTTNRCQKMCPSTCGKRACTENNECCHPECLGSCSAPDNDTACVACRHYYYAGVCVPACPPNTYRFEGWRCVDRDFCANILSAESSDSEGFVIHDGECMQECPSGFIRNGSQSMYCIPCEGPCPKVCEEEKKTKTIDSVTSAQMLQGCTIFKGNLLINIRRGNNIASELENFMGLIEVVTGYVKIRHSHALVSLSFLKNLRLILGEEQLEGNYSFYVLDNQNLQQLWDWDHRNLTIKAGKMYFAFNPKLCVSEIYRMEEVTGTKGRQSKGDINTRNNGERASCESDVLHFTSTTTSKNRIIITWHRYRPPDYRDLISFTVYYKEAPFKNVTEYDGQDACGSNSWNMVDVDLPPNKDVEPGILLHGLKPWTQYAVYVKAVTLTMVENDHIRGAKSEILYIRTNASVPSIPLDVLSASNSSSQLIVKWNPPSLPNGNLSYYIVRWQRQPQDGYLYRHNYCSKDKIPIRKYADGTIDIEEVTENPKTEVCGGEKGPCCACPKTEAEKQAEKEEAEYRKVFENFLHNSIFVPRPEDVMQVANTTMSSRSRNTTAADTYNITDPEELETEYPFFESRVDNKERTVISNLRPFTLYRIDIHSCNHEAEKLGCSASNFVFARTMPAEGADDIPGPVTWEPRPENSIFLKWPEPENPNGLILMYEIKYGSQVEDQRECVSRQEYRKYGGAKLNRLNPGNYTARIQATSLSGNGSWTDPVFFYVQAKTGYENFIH
Experimental: Rat IR membrane preparation (I-9266) (IR) and human INS-like growth factor receptor (IGFR) (I-4657) were obtained from Sigma-Aldrich. The rat IR was a partially purified preparation in residual membrane and contained 250 units of activity as measured by its ability to catalyze the incorporation of 1 pmol per min of phosphate from γ-^32P-ATP into poly(Glu, Tyr), 4:1, at 30°C. The IGFR was recombinant, at least 95% pure by SDS-PAGE, and capable of binding INS-like growth factor. Both receptor preparations, in sum, retained activity.
as §1
This serial addition method was also used to determine the binding of estradiol to IR and IGFR.

[20] = molecular target: IR α 233–248 (human)
[21] = molecular target: IR α 424–441 (human)
[22] = molecular target: IR α 223–234 (human)
[23] = molecular target: IR α 91–103 (human)
[24] = molecular target: IR α 392–404 (human)
[25] = Binding constant to recombinant human INS, UV spectroscopy

Compound | pKd [1] | pKd [2] | pKd [4] | pKd [5] | pKd [6] | pKd [7] | pKd [8] | pKd [9] | pKd [10] | further results
C[C@]12CC[C@@H]3c4ccc(O)cc4CC[C@H]3[C@@H]1C[C@@H](O)[C@@H]2O [Estriol] | < 3.30 | < 3.30 | < 3.30 | < 3.30 | < 3.30 | < 3.30 | < 3.30 | < 3.30 | 3.41 | Kd [3]: 380 µM; pKd [4, 25]: < 3.30
C[C@]12CC[C@@H]3c4ccc(O)cc4CC[C@H]3[C@@H]1CCC2=O [Estrone] | < 3.30 | < 3.30 | 5.90 | < 3.30 | < 3.30 | < 3.30 | < 3.30 | < 3.30 | < 3.30 | Kd [3]: > 500 µM
O=C(c1ccc(OCCN2CCCCC2)cc1)c1c(-c2ccc(O)cc2)sc2cc(O)ccc12 [Raloxifene, Raloxifene HCl] |  |  | 3.89 |  |  |  |  |  |  | pKd [4, 25]: 3.89; Binding to INS (in words) [4]: negligible binding
C[C@]12C[C@H](O)[C@H]3[C@@H](CCC4=CC(=O)CC[C@@]43C)[C@@H]1CC[C@@H]2C(=O)CO [Corticosterone] |  |  | 4.68 |  |  |  |  |  |  | 
C[C@]12CC[C@@H]3c4ccc(O)cc4CC[C@H]3[C@@H]1CC[C@@H]2O [17β-Estradiol (E2), 17β-Estradiol] | 6.05 | 3.92 | 7.92 | < 3.30 | < 3.30 | 6.11 | 3.55 | < 3.30 | < 3.30 | pKd [11]: 3.82; Kd [3]: > 500 µM; pKd ([4]; Binding constant (Kd) to INS, high affinity binding, UV spectroscopy): ~7.92 and 7.92; pKd ([4]; read-out: Binding constant to INS, low affinity binding, UV spectroscopy, biphasic binding): 4.19; Decrease of INS binding in rats [12]: ≤ 50%; Concentration of E2 in E2-saturated phosphate buffer in the presence of INS or IR [13]: ca. 60 ng/ml; Decrease of INS binding in cell culture [14]: ~ 20%; Shift of INS–HRP/IR binding curve to the right ([15]; E2 incubated with either INS–HRP or the IR alone, E2 initially 200 nM, about 22 nM at curve mid-point, duplicates averaged): half; Shift of INS–HRP/IR binding curve to the right ([15]; both the IR and INS–HRP exposed to E2, E2 about 22 nM at curve mid-point): 0.8 log units; EI/E ratio, mean ± SD [16]: 3.96 ± 0.45; Binding to the insulin A chain (in words), serial additions ([17]; UV serial addition, 1000 times the concentration of E2 used in Figure 2 (Figure 3)): no binding was apparent; pKd ([17]; read-out: Binding constant to individual oxidized INS A chain, UV spectroscopy): 3.66; Binding to glucagon (in words) [18]: does not bind with measurable affinity; pKd ([19]; read-out: Binding to IGFR, high affinity binding): ~7.00; pKd ([19]; read-out: Kd to IGFR, lower affinity binding): < 5.00
CC(=O)[C@H]1CC[C@H]2[C@@H]3CC=C4C[C@@H](O)CC[C@]4(C)[C@H]3CC[C@]12C [Pregnenolone, 5-Pregnen-3β-ol-20-one] |  |  |  |  |  |  |  |  |  | Kd [3]: > 500 µM
CC/C(=C(\c1ccccc1)c1ccc(OCCN(C)C)cc1)c1ccccc1 [Tamoxifen, Tamoxifen citrate salt] |  |  | < 3.30 |  |  |  |  |  |  | Binding to INS (in words) [4]: negligible binding
CC(=O)[C@H]1CC[C@H]2[C@@H]3CCC4=CC(=O)CC[C@]4(C)[C@H]3CC[C@]12C [Progesterone] | < 3.30 | < 3.30 | < 3.30 | < 3.30 | < 3.30 | < 3.30 | < 3.30 | < 3.30 | < 3.30 | 
CC(C)CCC[C@@H](C)[C@H]1CC[C@H]2[C@@H]3CC=C4C[C@@H](O)CC[C@]4(C)[C@H]3CC[C@]12C [Cholesterol] | < 3.30 | < 3.30 | < 3.30 | < 3.30 | < 3.30 | < 3.30 | < 3.30 | < 3.30 | < 3.30 | 
O=c1c(-c2ccc(O)cc2)coc2cc(O)cc(O)c12 [Genistein] |  |  | < 3.30 |  |  |  |  |  |  | Binding to INS (in words) [4]: negligible binding
insulin conjugated to horse-radish peroxidase (ligand) |  |  |  |  |  |  |  |  |  | pKd [20]: 8.10; pKd [21]: < 3.30; pKd [22]: < 3.30; pKd [23]: 7.15; pKd [24]: 6.52
C[C@]12CC[C@@H]3c4ccc(O)cc4CC[C@H]3[C@@H]1CC[C@H]2O [17α-Estradiol] |  |  | 5.00 |  |  |  |  |  |  | Binding to INS (in words), serial additions ([4]; UV spectroscopy, serial additions, even at 1 μM (Figure 2)): does not bind significantly
C[C@]12CCC(=O)C=C1CC[C@@H]1[C@@H]2CC[C@]2(C)C(=O)CC[C@@H]12 [Andro-stenedione, 4-andro-stenedione] | < 3.30 | < 3.30 | 4.87 | < 3.30 | < 3.30 | < 3.30 | < 3.30 | < 3.30 | < 3.30 | pKd [3]: < 3.30
C[C@]12CCC(=O)C=C1CC[C@@H]1[C@@H]2[C@@H](O)C[C@@]2(C)[C@H]1CC[C@]2(O)C(=O)CO [Hydrocortisone] |  |  | 4.20 |  |  |  |  |  |  | 
